# Experimental data reported in DBAASP.
# Columns and labels:
# Test in all cases: ≥ marks a high value that may be exact or a test limit, other limits are often not marked, values filed in µg/mL are converted to µM
# [1] = tested on: Acinetobacter baumannii
# [2] = tested on: Pseudomonas aeruginosa
# [3] = tested on: Enterococcus faecalis
# [4] = tested on: Raoultella terrigena
# [5] = tested on: Enterococcus gallinarum
# [6] = tested on: Candida albicans ATCC 10231
# [7] = tested on: Bacillus megaterium Bm11
# [8] = tested on: Escherichia coli ATCC 25922
# [9] = tested on: Staphylococcus capitis 1
# [10] = tested on: Yersinia pseudotuberculosis YPIII
# [11] = tested on: Staphylococcus aureus Cowan 1
# [12] = tested on: Microbacterium maritypicum CIP 105733T
# [13] = tested on: Escherichia coli SBS 363
# [14] = tested on: Staphylococcus aureus CIP 103428
# [15] = tested on: Bacillus megaterium CIP 6620
# [16] = tested on: Vibrio nigripulchritudo CIP 103195
# [17] = tested on: Micrococcus luteus CIP 5345
# [18] = tested on: Corynebacterium stationis CIP 101282
# [19] = tested on: Staphylococcus aureus SG511
# [20] = tested on: Staphylococcus haemolyticus
# [21] = tested on: Vibrio splendidus CIP 107715
# [22] = tested on: Staphylococcus epidermidis T6/19
# [23] = tested on: Staphylococcus aureus ATCC 25923
# [24] = tested on: Staphylococcus aureus 127/08
# [25] = tested on: Pseudomonas aeruginosa ATCC 27853
# [26] = tested on: Stenotrophomonas maltophilia B32/1
# [27] = tested on: Klebsiella pneumoniae ATCC 700603
# [28] = tested on: Stenotrophomonas maltophilia B5/5
# [29] = tested on: Acinetobacter baumannii NM35
# [30] = tested on: Acinetobacter baumannii NM8
# [31] = tested on: Escherichia coli ATCC 25726
# [32] = tested on: Candida albicans ATCC 90028
# [33] = tested on: Staphylococcus aureus 145/08
# [34] = tested on: Staphylococcus epidermidis RP62A
# [35] = tested on: Staphylococcus epidermidis RP62A/1
# [36] = tested on: Enterococcus faecalis ATCC 29212
# [37] = tested on: Acinetobacter baumannii NM124
# [38] = tested on: Stenotrophomonas maltophilia B32/4
# [39] = tested on: Salmonella typhimurium KCTC 1926
# [40] = tested on: Escherichia coli CCARM 1229
# [41] = tested on: Trichosporon beigelii KCTC 7707
# [42] = tested on: Candida albicans CCARM 14001
# [43] = tested on: Escherichia coli CCARM 1238
# [44] = tested on: Pseudomonas aeruginosa KCTC 1637
# [45] = tested on: Candida albicans CCARM 14020
# [46] = tested on: Candida albicans KCTC 7270
# [47] = tested on: Listeria monocytogenes KCTC 3710
# [48] = tested on: Escherichia coli KCTC 1682
# [49] = tested on: Staphylococcus aureus KCTC 1621
# [50] = tested on: Candida albicans CCARM 14007
# [51] = tested on: Bacillus subtilis KCTC 1918
smiles,measurement,setting,value
CSCC[C@H](NC(=O)[C@H](C)NC(C)=O)C(=O)N[C@H](C(=O)N[C@@H](CO)C(=O)N[C@@H](CO)C(=O)O)C(C)C [AMVSS],MIC,[1],23.1 µM
same,MIC,[2],23.1 µM
same,MIC,[3],≥ 46.2 µM
same,MIC,[4],23.1 µM
same,MIC,[5],23.1 µM
CC[C@H](C)[C@H](NC(=O)CNC(=O)[C@H](CO)NC(=O)[C@H](C)NC(=O)[C@@H](NC(=O)[C@H](CCCN=C(N)N)NC(=O)CNC(=O)[C@@H](NC(=O)[C@H](CC(C)C)NC(=O)[C@@H]1CCCN1C(=O)[C@H](CC(C)C)NC(=O)[C@@H](N)Cc1ccccc1)[C@@H](C)CC)C(C)C)C(=O)N[C@@H](CC(C)C)C(N)=O [FLPLIGRVASGIL],MIC,[6],> 40 µM
same,MIC,[7],≥ 40 µM
same,MIC,[8],> 40 µM
same,MIC,[9],≥ 40 µM
same,MIC,[10],≥ 40 µM
same,MIC,[11],≥ 40 µM
CC[C@H](C)[C@H](NC(=O)[C@@H]1CCCN1C(=O)CN)C(=O)N[C@@H](CCCN=C(N)N)C(=O)N[C@@H](CCCN=C(N)N)C(=O)N1CCC[C@H]1C(=O)N[C@@H](CCCCN)C(=O)N1CCC[C@H]1C(=O)N[C@@H](CCCN=C(N)N)C(=O)N1CCC[C@H]1C(=O)N[C@@H](CCCN=C(N)N)C(=O)N1CCC[C@H]1C(=O)N[C@@H](CCCN=C(N)N)C(=O)N1CCC[C@H]1C(=O)N[C@@H](CCC(=O)O)C(=O)O [GPIRRPKPRPRPRPE],MIC,[12],20 µM
same,MIC,[13],≥ 80 µM
same,MIC,[14],20 µM
same,MIC,[15],20 µM
same,MIC,[16],≥ 40 µM
same,MIC,[17],≥ 80 µM
same,MIC,[18],20 µM
same,MIC,[19],20 µM
same,MIC,[20],20 µM
same,MIC,[21],≥ 40 µM
CC[C@H](C)[C@H](N)C(=O)N[C@@H](CCCCN)C(=O)N[C@H](C(=O)N1CCC[C@H]1C(=O)N[C@@H](CO)C(=O)N[C@@H](Cc1ccccc1)C(=O)N[C@@H](Cc1ccccc1)C(=O)N[C@@H](CCCN=C(N)N)C(=O)N[C@@H](CC(N)=O)C(=O)N[C@H](C(=O)N[C@@H](CC(C)C)C(=O)N[C@@H](CCCCN)C(=O)N[C@@H](CCCCN)C(=O)N[C@H](C(=O)NCC(=O)N[C@@H](CCCCN)C(=O)N[C@@H](CCC(=O)O)C(=O)N[C@@H](C)C(=O)N[C@H](C(=O)N[C@@H](CO)C(=O)N[C@@H](CC(C)C)C(=O)N[C@H](C(=O)N[C@@H](C)C(=O)NCC(=O)N[C@@H](C)C(=O)N[C@@H](CC(C)C)C(=O)N[C@@H](CCCCN)C(=O)N[C@@H](CCC(N)=O)C(=O)N[C@@H](CO)C(=O)O)[C@@H](C)CC)C(C)C)C(C)C)[C@@H](C)CC)[C@@H](C)CC [IKIPSFFRNILKKVGKEAVSLIAGALKQS],MIC,[22],2.5 µM
same,MIC,[23],7.07 µM
same,MIC,[24],5 µM
same,MIC,[25],20 µM
same,MIC,[26],5 µM
same,MIC,[27],20 µM
same,MIC,[28],10 µM
same,MIC,[29],5 µM
same,MIC,[30],10 µM
same,MIC,[31],10 µM
same,MIC,[32],≥ 80 µM
same,MIC,[33],10 µM
same,MIC,[34],2.5 µM
same,MIC,[35],1.25 µM
same,MIC,[36],10 µM
CC[C@H](C)[C@@H]1NC(=O)[C@H](CCCCN)NC(=O)[C@@H](NC(=O)[C@H](C)NC(=O)[C@@H](NC(=O)[C@H](CC(C)C)NC(=O)[C@H](CC(=O)O)NC(=O)[C@@H](NC(=O)CNC(=O)[C@H](CC(C)C)NC(=O)[C@H](CCCCN)NC(=O)[C@H](C)NC(=O)[C@H](CC(C)C)NC(=O)[C@H](CC(=O)O)NC(=O)[C@H](CCCCN)NC(=O)CNC(=O)[C@H](CC(C)C)NC(=O)CNC(=O)[C@H](CCCCN)NC(=O)[C@H](CO)NC(=O)[C@H](C)NC(=O)[C@H](Cc2ccccc2)NC(=O)[C@@H](N)CCCCN)C(C)C)C(C)C)CSSC[C@@H](C(=O)O)NC(=O)[C@H](CCC(N)=O)NC(=O)[C@H](CCCCN)NC(=O)[C@H](CO)NC1=O [KFASKGLGKDLAKLGVDLVACKISKQC],MIC,[37],≥ 100 µM
same,MIC,[23],> 200 µM
same,MIC,[24],≥ 200 µM
same,MIC,[26],≥ 100 µM
same,MIC,[30],≥ 200 µM
same,MIC,[31],≥ 200 µM
same,MIC,[38],≥ 50 µM
NCCCC[C@H](NC(=O)[C@H](Cc1c[nH]c2ccccc12)NC(=O)[C@H](CCCCN)NC(=O)[C@H](Cc1c[nH]c2ccccc12)NC(=O)[C@H](CCCCN)NC(=O)[C@@H](N)Cc1c[nH]c2ccccc12)C(=O)O [WKWKWK],MIC,[39],16 µM
same,MIC,[40],≥ 256 µM
same,MIC,[41],16 µM
same,MIC,[42],≥ 32 µM
same,MIC,[43],≥ 256 µM
same,MIC,[44],≥ 64 µM
same,MIC,[45],≥ 32 µM
same,MIC,[46],≥ 32 µM
same,MIC,[47],≥ 128 µM
same,MIC,[48],≥ 256 µM
same,MIC,[49],≥ 256 µM
same,MIC,[50],≥ 32 µM
same,MIC,[51],≥ 256 µM
